Assay results reported in ChEMBL document CHEMBL1201862, “PubChem BioAssay data set” (2004).
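In this assay, cells in 96-well plates receive the compound at five concentrations for 48 hours. Endpoints are linearly interpolated between the surrounding concentrations. Here, GI50 denotes the concentration required for 50% inhibition of growth.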 Calls of active or inactive are those of the source. Cut-off read from the data, not from the text of the source: active = GI50 up to about 1.1 µM and inactive = higher.

How the values were obtained:
Test in all cases: NCI-60 cell line screen, 48 h
M14 = system: M14
CAKI-1 = system: CAKI-1
A498 = system: A498
COLO 205 = system: COLO 205
OVCAR-8 = system: OVCAR-8
NCI-H522 = system: NCI-H522
OVCAR-5 = system: OVCAR-5
SK-OV-3 = system: SK-OV-3
HT-29 = system: HT-29
DLD-1 = system: DLD-1
SF-268 = system: SF-268
UACC-257 = system: UACC-257
MOLT-4 = system: MOLT-4
NCI-H226 = system: NCI-H226
NCI-H23 = system: NCI-H23
BT-549 = system: BT-549
DU-145 = system: DU-145
T47D = system: T47D
MCF7 = system: MCF7
NCI/ADR-RES = system: NCI/ADR-RES

Row | Compound | GI50 (M14) | GI50 (CAKI-1) | GI50 (A498) | GI50 (COLO 205) | GI50 (OVCAR-8) | GI50 (NCI-H522) | GI50 (OVCAR-5) | GI50 (SK-OV-3) | GI50 (HT-29) | GI50 (DLD-1) | GI50 (SF-268) | GI50 (UACC-257) | GI50 (MOLT-4) | GI50 (NCI-H226) | GI50 (NCI-H23) | GI50 (BT-549) | GI50 (DU-145) | GI50 (T47D) | GI50 (MCF7) | GI50 (NCI/ADR-RES)
1 | Cc1cc(Cc2cc(C)c(NC(=O)C(=O)C3C(=O)NC(=S)NC3=O)c(C(C)C)c2)cc(C(C)C)c1NC(=O)C(=O)C1C(=O)NC(=S)NC1=O | > 100 µM (inactive) | > 100 µM (inactive) | > 100 µM (inactive) | > 100 µM (inactive) | > 100 µM (inactive) | > 100 µM (inactive) | > 100 µM (inactive) | > 100 µM (inactive) | > 100 µM (inactive) | > 100 µM (inactive) | > 100 µM (inactive) | > 100 µM (inactive) | > 100 µM (inactive) | > 100 µM (inactive) | > 100 µM (inactive) |  |  |  |  | 
2 | [O-][Cl+3]([O-])([O-])O.c1ccc(/N=c2\snc(-c3ccccc3)s2)cc1 | > 100 µM (inactive) | > 100 µM (inactive) | > 100 µM (inactive) | > 100 µM (inactive) | > 100 µM (inactive) | > 100 µM (inactive) |  | > 100 µM (inactive) |  | > 100 µM (inactive) | > 100 µM (inactive) | > 100 µM (inactive) | > 100 µM (inactive) | > 100 µM (inactive) |  |  |  |  |  | 
3 | O=C1c2c(O)cccc2C(C(=O)CCCCC(=O)C2c3cccc(O)c3C(=O)c3c(O)cccc32)c2cccc(O)c21 | 0.897 µM (active) | 3.92 µM (inactive) | 1.56 µM (inactive) | 0.759 µM (active) | 0.733 µM (active) | 0.543 µM (active) | 0.528 µM (active) | 0.562 µM (active) | 0.641 µM (active) | 1.04 µM (active) | 0.69 µM (active) | 0.526 µM (active) | 0.979 µM (active) | 0.918 µM (active) | 0.618 µM (active) | 0.603 µM (active) | 0.671 µM (active) | 0.442 µM (active) | 0.845 µM (active) | 
4 | Cc1[nH]c2ccccc2c1C(=O)CC1(O)C(=O)Nc2c(Cl)cc(Cl)cc21 (configuration not stated) | 21.5 µM (inactive) | 40.8 µM (inactive) | 33 µM (inactive) | 30.1 µM (inactive) | 24.3 µM (inactive) | 16.9 µM (inactive) | 24 µM (inactive) | 72.3 µM (inactive) | 54.3 µM (inactive) | 44.9 µM (inactive) | 25.3 µM (inactive) | 17.2 µM (inactive) | 22.1 µM (inactive) | 18.8 µM (inactive) | 19.5 µM (inactive) |  |  |  |  | 
5 | C[N+]1=c2c3cccc4cccc(c(=O)n2CCC1)c43 | 17.2 µM (inactive) | 31 µM (inactive) | 18.5 µM (inactive) | 16.2 µM (inactive) | 17.7 µM (inactive) | 15.8 µM (inactive) | 17.8 µM (inactive) | 27.5 µM (inactive) | 20.1 µM (inactive) | 21.4 µM (inactive) | 23.5 µM (inactive) | 17.3 µM (inactive) | 19.9 µM (inactive) | 18.4 µM (inactive) | 19 µM (inactive) |  |  |  |  | 
6 | N#CN1CC[C@@H]2CC3(CCC2C1)OCCO3 (some centres not stated) | > 100 µM (inactive) | > 100 µM (inactive) | > 100 µM (inactive) | > 100 µM (inactive) | > 100 µM (inactive) | < 0.01 µM (active) | > 100 µM (inactive) | > 100 µM (inactive) | > 100 µM (inactive) | > 100 µM (inactive) | > 100 µM (inactive) | > 100 µM (inactive) | > 100 µM (inactive) | > 100 µM (inactive) | > 100 µM (inactive) |  |  |  |  | 
7 | O=C1NC(=S)NC(=O)C1=Cc1ccc[nH]1 | 21 µM (inactive) | 11.2 µM (inactive) | 35.2 µM (inactive) | 12.2 µM (inactive) | 4.71 µM (inactive) | 1.87 µM (inactive) | 23.2 µM (inactive) | > 100 µM (inactive) | 4.38 µM (inactive) | 6.85 µM (inactive) | 22.6 µM (inactive) | 20.9 µM (inactive) | 16.2 µM (inactive) | 14.5 µM (inactive) | 12.4 µM (inactive) |  |  |  |  | 
8 | COC(=O)c1c(O)ccc(O)c1C(C(C)=O)C(C)=O | > 100 µM (inactive) | > 100 µM (inactive) | > 100 µM (inactive) | > 100 µM (inactive) | > 100 µM (inactive) | 45.9 µM (inactive) |  | > 100 µM (inactive) | > 100 µM (inactive) | > 100 µM (inactive) | > 100 µM (inactive) | > 100 µM (inactive) | > 100 µM (inactive) |  | > 100 µM (inactive) |  |  |  |  | 
9 | Cc1nc2c(o1)C(=O)c1ccccc1/C2=N\c1ccccc1 | 0.841 µM (active) | 17.9 µM (inactive) | > 10 µM (inactive) | 13.9 µM (inactive) | 2 µM (inactive) | 1.86 µM (inactive) | 5.85 µM (inactive) | 17.4 µM (inactive) | 10.2 µM (inactive) | 13.7 µM (inactive) | 4.01 µM (inactive) | 2.05 µM (inactive) |  | 13.6 µM (inactive) | 1.38 µM (inactive) | 1.68 µM (inactive) | 1.74 µM (inactive) | 2.52 µM (inactive) | 2.37 µM (inactive) | 
10 | C[N+]12c3ccccc3O[B-]1(c1ccccc1)Oc1ccccc12 (configuration not stated) | 15 µM (inactive) | 63.1 µM (inactive) | > 100 µM (inactive) | 63.8 µM (inactive) | 28.6 µM (inactive) | 15.3 µM (inactive) | 77.4 µM (inactive) | 33.7 µM (inactive) | 73.5 µM (inactive) | 18.2 µM (inactive) | 20.3 µM (inactive) | 27.1 µM (inactive) | 5.74 µM (inactive) | 32.8 µM (inactive) | 52.8 µM (inactive) |  |  |  |  | 
11 | CC[C@@]1(O)C(=O)OCc2c1cc1n(c2=O)Cc2c-1nc1ccccc1c2Cl | < 0.0133 µM (active) | < 0.01 µM (active) | 0.0237 µM (active) | 0.658 µM (active) | 0.0146 µM (active) | < 0.0127 µM (active) | 0.0811 µM (active) | 0.0217 µM (active) | 0.0461 µM (active) | 0.877 µM (active) | < 0.01 µM (active) | 0.112 µM (active) | < 0.01 µM (active) | < 0.01 µM (active) | < 0.01 µM (active) | < 0.0136 µM (active) | < 0.01 µM (active) | < 0.01 µM (active) | < 0.01 µM (active) | < 0.01 µM (active)
12 | C=C(C[N+](C)(C)C)N/N=C/c1oc(-c2ccc(OC)c(OC)c2)c(-c2ccc(OC)c(OC)c2)c1[N+](=O)[O-] | 22.1 µM (inactive) | 32.6 µM (inactive) | 28.6 µM (inactive) | 16.4 µM (inactive) | 15.8 µM (inactive) | 23.2 µM (inactive) | 19.1 µM (inactive) | 30.3 µM (inactive) | 16.9 µM (inactive) | 19.9 µM (inactive) | 17.9 µM (inactive) | 20.2 µM (inactive) | 22.4 µM (inactive) | 27.3 µM (inactive) | 21 µM (inactive) |  | 34.1 µM (inactive) |  |  | 
13 | O=C1NC(=O)c2c1n(Cc1ccccc1)c(=O)n2Cc1ccccc1 | > 100 µM (inactive) | > 100 µM (inactive) | 30.4 µM (inactive) | > 100 µM (inactive) | > 100 µM (inactive) | > 100 µM (inactive) | > 100 µM (inactive) | > 100 µM (inactive) | > 100 µM (inactive) | > 100 µM (inactive) | > 100 µM (inactive) | > 100 µM (inactive) | > 100 µM (inactive) | > 100 µM (inactive) | > 100 µM (inactive) |  |  |  |  | 
14 | O=C(c1ccccc1)C1OC12C(=O)Nc1c(Cl)cc(Cl)cc12 (configuration not stated) | 31.5 µM (inactive) | 24.8 µM (inactive) | > 92 µM (inactive) | 19.7 µM (inactive) | 17 µM (inactive) | 17.5 µM (inactive) | > 100 µM (inactive) | > 53 µM (inactive) | 33.6 µM (inactive) | 18.6 µM (inactive) | 35.2 µM (inactive) | > 100 µM (inactive) | 10.2 µM (inactive) | 5.6 µM (inactive) | 58.2 µM (inactive) |  |  |  |  | 
15 | NC1C2(CCCCCC2)NC(=O)C12CCCCCC2 (configuration not stated) | > 100 µM (inactive) | > 100 µM (inactive) | > 100 µM (inactive) | > 100 µM (inactive) | > 100 µM (inactive) | > 100 µM (inactive) | > 100 µM (inactive) | > 100 µM (inactive) | > 100 µM (inactive) | > 100 µM (inactive) | > 100 µM (inactive) | > 100 µM (inactive) | > 100 µM (inactive) |  | > 100 µM (inactive) |  |  |  |  | 
16 | COc1ccc2nc3cc(Cl)ccc3c(SCC(=O)Nc3ccccc3-c3ccccc3NC(=O)CSc3c4ccc(Cl)cc4nc4ccc(OC)cc34)c2c1 | > 100 µM (inactive) | > 100 µM (inactive) | > 100 µM (inactive) | > 100 µM (inactive) | > 100 µM (inactive) | > 100 µM (inactive) | > 100 µM (inactive) | > 100 µM (inactive) | > 100 µM (inactive) | > 100 µM (inactive) | > 100 µM (inactive) | > 100 µM (inactive) | > 100 µM (inactive) | > 100 µM (inactive) | > 100 µM (inactive) |  |  |  |  | 
